Assays:
GFP-LC3 transgenic mice = experiment: GFP-LC3 puncta in tissues of GFP-LC3 transgenic mice; type: in vivo, mouse; conditions: for numbers of GFP-LC3 puncta (autophagosomes): mouse brain; for number of GFP-LC3 puncta (autophagosomes): brain frontal cortex, heart, liver and muscle
Excerpt: Results represent mean±s.d. Scale bar, 25 μm. N>100 cells or N2::4 mice.
Scale bar, 20 μm. Results represent mean±s.d. N≥4 mice.
Results represent mean±s.e.m. Statistics compare each value to the one with DMSO treatment. *, P<0.05; **, P<0.01; ***, P<0.001, t test. Scale bar: 20 μm.
To test this hypothesis, it was confirmed that Rg2 induces autophagy in vivo, by injecting Rg2 intraperitoneally (i.p.) into transgenic mice globally expressing GFP-LC3. […] Furthermore, in vivo autophagy induction by Rg2 via GFP-LC3 puncta assays in both muscle and brain was examined. […] Thus, the majority of Rg2 is not bound by plasma proteins and is freely available. Taken together, Rg2 was identified as a new in vivo autophagy inducer in vivo.
Autophagy analyses. For assessment of autophagy in vivo, 8-week old male WT and Becn 1FA/FA mice crossed to GFP-LC3 mice were exercised for 90 minutes, or starved for 48 h, and then anaesthetized by isoflurane and perfused with 4% PFA Brain and muscle samples were fixed in 4% PFA overnight, 15% sucrose for 4 h and 30% sucrose overnight before frozen sections were prepared. The number of GFP-LC3 puncta per unit area of tissue was quantified by fluorescence microscopy. Autophagy in vivo was also analyzed by western blot analysis of brain tissue extracts with antibodies against LC3 and p62/SQSTM1 (see below for details).

Hela cells = experiment: Western blot detection of LC3 and p62 in Hela cells; type: cell-based
Procedure: (§1) Western blot analyses. Cell or mouse muscle and brain extracts were prepared in lysis buffer containing 50 mM Tris (pH 7.4), 150 mM NaCl, 1 mM EDTA, 1% Triton X-100, halt proteinase inhibitor cocktail (ThermoFisher Scientific) and halt phosphatase inhibitor cocktail (ThermoFisher Scientific), and subjected to western blot analysis with anti-LC3 (Novus Biologicals, NB100-2220), anti-SQSTM 1 (Abnova, H00008878-M01), anti-Af342 (Invitrogen; 700254), anti-APP (Biolegend; 803001), HRP-conjugated GFP antibody (Santa Cruz Biotechnology, sc9996), anti-HA (Cell Signaling Technology, C29F4), anti-ATG7 (Sigma Aldrich; A2856), anti-LDLR (Abeam, ab52818), anti-LRP 1 (Abeam, ab92544), and anti-ACTB/f3-actin-HRP (Santa Cruz Biotechnology, sc47778 HRP) antibodies. The band intensity was analyzed using the ImageJ software.

[1] = tested on: HEK293 cells stably expressing APP; experiment: Dot blot of secreted Aβ42 in conditioned media of APP-HEK293 cells; type: cell-based, human
Procedure: Cells were transfected with non-targeting control (NC) or ATG7 siRNA 24 h prior to ML246 treatment. Results are quantified from 4 independent experiments.
In addition to Becn2^F121A-mediated genetic activation of autophagy, it was decided to further study whether stimulating autophagy pharmacologically is also protective against neurodegenerative progression. A brain-penetrable autophagy-inducing small molecule ML246 (metarrestin) was recently identified, and analyzed its effects on the clearance of aggregate-prone proteins in vitro and in vivo. For in vitro analyses, the HEK293 cell line stably expressing APP (APP-HEK293) was utilized, in which the produced Aβ molecules are efficiently secreted, to study the effect of ML246 on amyloid metabolism. […] In addition, cultured WT primary cortical neurons treated with the conditioned media from ML246-treated APP-HEK293 cells underwent a lower level of apoptotic cell death than those treated with media from vehicle-treated APP-HEK293 cells (FIG. 18B).
Dot blot assay. […] Protein concentration was quantified using BCA Assay (Pierce). […] The membrane was stained with Ponceau S, and the dot blot signal on the membrane was detected by immunostaining with Aβ42 antibody (Invitrogen, 700254, 1:1000) and HRP-conjugated secondary antibody (Santa Cruz Biotechnology, sc2004, 1:2000). […]

[2] = tested on: WT primary cortical neurons; experiment: TUNEL assay of primary cortical neurons treated with conditioned media of APP-HEK293 cells; type: cell-based, mouse
Procedure: Nuclei were stained with DAPI. Scale bar, 100 μm. N=10 fields (each field containing 20-30 neurons).
TUNEL assays. APP-HEK293 cells were cultured in 6-well dishes for 24 h and then the media was replaced with neuronal culture media. After 48 h, conditioned media was collected and used to treat primary cortical neurons (12 DIV) cultured on poly-L-lysine coated slides for another 24 h. Apoptotic neurons were detected by the In Situ Cell Death Detection Kit, TMR red (Roche, cat. #12156792910) according to the manufacturer's instructions. Nuclei were stained using the mounting medium containing DAPI (Vectashield). Quantification of red TUNEL-positive neurons was done using the NIS Elements software.

APP = experiment: Expression of the precursor APP in brain of 5XFAD mice; type: in vivo, mouse
Procedure: as §1

5XFAD mice [3] = experiment: Contextual fear conditioning test of 5XFAD mice; type: in vivo, mouse; conditions: Rg2 for 4 months
Procedure: Fear conditioning training exposed mice to 2-s electrical foot shocks separated by 1-min interval through a grid floor at the bottom of the chamber. On the following day, the mice were returned to the same chamber and their movements were recorded with a video camera to test for contextual conditioning. Freezing (very low levels of movement) in the training environment indicate context-associated fear. WT mice without APP transgene were used as negative control in the above studies. N=8. *, P<0.05; **, P<0.01, t test.

5XFAD mice [4] = experiment: Open-field test of 5XFAD mice; type: in vivo, mouse; conditions: Rg2-treated vs vehicle-treated 5XFAD mice
[5] = mouse, in vivo
[6] = tested on: HeLa cell lines expressing HTT
mouse models of AD = conditions: cited from earlier work

Row | SMILES | numbers of GFP-LC3 puncta (autophagosomes) (GFP-LC3 transgenic mice) | levels of p62 (SQSTM1) (Hela cells) | level of secreted Aβ in the conditioned media ([1]; APP-HEK293 cells, 24 h) | ML246-mediated reduction of secreted Aβ42 ([1]; siRNA knockdown of ATG7) | apoptotic cell death of neurons ([2]; conditioned media from ML246-treated APP-HEK293 cells vs vehicle-treated) | ML246-mediated reduction of apoptotic neuronal death ([2]; siRNA knockdown of ATG7 in APP-HEK293 cells) | expression of the precursor APP (APP; ML246 for 5 weeks) | number of GFP-LC3 puncta (autophagosomes) (GFP-LC3 transgenic mice; 10 mg/kg i.p.) | number of GFP-LC3 puncta (autophagosomes) (GFP-LC3 transgenic mice; 20 mg/kg i.p.) | duration of autophagy activity (GFP-LC3 transgenic mice; brain) | time of peak of autophagy activity (GFP-LC3 transgenic mice; brain) | time of decline of autophagy to the basal level (GFP-LC3 transgenic mice; muscle) | time of peak of induced autophagy (GFP-LC3 transgenic mice; muscle) | freezing responses (contextual fear memory) (5XFAD mice [3]) | locomotor activity (distance travelled) (5XFAD mice [4]) | expression of the precursor APP (APP; Rg2 for 16 weeks) | food intake [5] | cell viability [6] | amyloid burden and memory deficit (mouse models of AD)
1 | N=c1c2c(-c3ccccc3)c(-c3ccccc3)n(Cc3ccccc3)c2ncn1[C@H]1CC[C@H](O)CC1 [ML246] | markedly increased | decreased | significantly reduced | reversed | lower level | reversed | not affected | – | – | – | – | – | – | – | – | – | – | – | –
2 | CC(C)=CCC[C@](C)(O)[C@H]1CC[C@]2(C)[C@@H]1[C@H](O)C[C@@H]1[C@@]3(C)CC[C@H](O)C(C)(C)[C@@H]3[C@@H](O[C@@H]3O[C@H](CO)[C@@H](O)[C@H](O)[C@H]3O[C@@H]3O[C@@H](C)[C@H](O)[C@@H](O)[C@H]3O)C[C@]12C [Rg2, ginsenoside Rg2] | markedly increased | decreased | – | – | – | – | – | significantly increases | significantly increases | at least 24 h | 4 h | 8 to 16 h | 4 h | rescued the freezing responses | no rescue | remained unaffected | does not alter | grew as well as the control cells | reduces amyloid burden and memory deficit

From patent US11241436B2, “Autophagy inducers for treatment of CNS conditions” (Northwestern University, priority 2017, dated 2022)
